Measurements from PubChem BioAssay (NCI).
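How tested: cells in 96-well plates exposed to compound for 48 hours at five concentrations. GI50 marks 50% less growth. At the TGI there is no net growth.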

Legend:
Experiment in all cases: NCI tumour cell line growth inhibition, 48 h
TK-10 renal = system: TK-10 renal
SW-620 colon = system: SW-620 colon
DU-145 prostate = system: DU-145 prostate
MDA-MB-435 = system: MDA-MB-435
OVCAR-4 ovarian = system: OVCAR-4 ovarian
PC-3 prostate = system: PC-3 prostate
MALME-3M melanoma = system: MALME-3M melanoma
HCC-2998 colon = system: HCC-2998 colon
786-0 renal = system: 786-0 renal
SF-295 CNS = system: SF-295 CNS
K-562 leukemia = system: K-562 leukemia
LOX IMVI melanoma = system: LOX IMVI melanoma
T-47D breast = system: T-47D breast
SNB-19 CNS = system: SNB-19 CNS
A549 NSCLC = system: A549 NSCLC
COLO 205 colon = system: COLO 205 colon
HCT-116 colon = system: HCT-116 colon
SF-268 CNS = system: SF-268 CNS
MDA-MB-468 breast = system: MDA-MB-468 breast
SK-MEL-2 melanoma = system: SK-MEL-2 melanoma
UACC-257 melanoma = system: UACC-257 melanoma
ACHN renal = system: ACHN renal
NCI-H23 lung = system: NCI-H23 lung
SK-MEL-28 melanoma = system: SK-MEL-28 melanoma
NCI-H460 lung = system: NCI-H460 lung
HS 578T breast = system: HS 578T breast
HT29 colon = system: HT29 colon
CAKI-1 renal = system: CAKI-1 renal
NCI-H226 lung = system: NCI-H226 lung
RPMI-8226 leukemia = system: RPMI-8226 leukemia
SF-539 CNS = system: SF-539 CNS
BT-549 breast = system: BT-549 breast
HOP-62 NSCLC = system: HOP-62 NSCLC
OVCAR-5 ovarian = system: OVCAR-5 ovarian
OVCAR-8 ovarian = system: OVCAR-8 ovarian
MCF7 breast = system: MCF7 breast
CCRF-CEM leukemia = system: CCRF-CEM leukemia
MOLT-4 leukemia = system: MOLT-4 leukemia
NCI/ADR-RES ovarian = system: NCI/ADR-RES ovarian
HCT-15 colon = system: HCT-15 colon
MDA-MB-231 breast = system: MDA-MB-231 breast
M14 melanoma = system: M14 melanoma
SK-OV-3 ovarian = system: SK-OV-3 ovarian
IGROV1 ovarian = system: IGROV1 ovarian
UACC-62 melanoma = system: UACC-62 melanoma
SK-MEL-5 melanoma = system: SK-MEL-5 melanoma
UO-31 renal = system: UO-31 renal
A498 renal = system: A498 renal
OVCAR-3 ovarian = system: OVCAR-3 ovarian
EKVX NSCLC = system: EKVX NSCLC
SN12C renal = system: SN12C renal
KM12 colon = system: KM12 colon
HOP-92 NSCLC = system: HOP-92 NSCLC
NCI-H522 lung = system: NCI-H522 lung
U251 CNS = system: U251 CNS
HL-60(TB) leukemia = system: HL-60(TB) leukemia
RXF 393 renal = system: RXF 393 renal
SNB-75 CNS = system: SNB-75 CNS

`COC1=C[C@]23CCC(=O)N2CCc2cc4c(cc2[C@@H]3[C@@H]1OC(=O)[C@H](C)O)OCO4` showed a GI50 (TK-10 renal) of 15.8 µM, a TGI (TK-10 renal) of over 52 µM and a GI50 (SW-620 colon) of 8.06 µM. It also gave a TGI (SW-620 colon) of over 52 µM, a GI50 (DU-145 prostate) of 12.1 µM and a TGI (DU-145 prostate) of over 52 µM. It also gave a GI50 (MDA-MB-435) of 11.2 µM, a TGI (MDA-MB-435) of 45.5 µM and a GI50 (OVCAR-4 ovarian) of 8.79 µM. The TGI (OVCAR-4 ovarian) was over 52 µM, the GI50 (PC-3 prostate) was 6.71 µM and the TGI (PC-3 prostate) was 44.6 µM. The GI50 (MALME-3M melanoma) was 2.62 µM, the TGI (MALME-3M melanoma) was 16.2 µM and the GI50 (HCC-2998 colon) was 2.27 µM. For the same compound, the TGI (HCC-2998 colon) was 10.5 µM, the GI50 (786-0 renal) was 11 µM and the TGI (786-0 renal) was 42.9 µM. The GI50 (SF-295 CNS) was 9.24 µM, the TGI (SF-295 CNS) was 36.3 µM and the GI50 (K-562 leukemia) was 2.61 µM. It also gave a TGI (K-562 leukemia) of over 52 µM, a GI50 (LOX IMVI melanoma) of 2.31 µM and a TGI (LOX IMVI melanoma) of 13.3 µM. For the same compound, the GI50 (T-47D breast) was 6.98 µM, the TGI (T-47D breast) was 47.1 µM and the GI50 (SNB-19 CNS) was 4.85 µM. The TGI (SNB-19 CNS) was 31.1 µM, the GI50 (A549 NSCLC) was 7.13 µM and the TGI (A549 NSCLC) was 50.6 µM. It also gave a GI50 (COLO 205 colon) of 7.67 µM, a TGI (COLO 205 colon) of 31.5 µM and a GI50 (HCT-116 colon) of 2.33 µM. It also gave a TGI (HCT-116 colon) of over 52 µM, a GI50 (SF-268 CNS) of 15.3 µM and a TGI (SF-268 CNS) of over 52 µM. It also gave a GI50 (MDA-MB-468 breast) of 2.3 µM, a TGI (MDA-MB-468 breast) of 15.1 µM and a GI50 (SK-MEL-2 melanoma) of 12.6 µM. It also gave a TGI (SK-MEL-2 melanoma) of over 52 µM, a GI50 (UACC-257 melanoma) of 10.5 µM and a TGI (UACC-257 melanoma) of 42.1 µM. It also gave a GI50 (ACHN renal) of 3.65 µM, a TGI (ACHN renal) of 30.4 µM and a GI50 (NCI-H23 lung) of 7.5 µM. The TGI (NCI-H23 lung) was 24.5 µM, the GI50 (SK-MEL-28 melanoma) was 8.47 µM and the TGI (SK-MEL-28 melanoma) was 31.5 µM. For the same compound, the GI50 (NCI-H460 lung) was 1.65 µM, the TGI (NCI-H460 lung) was 13.1 µM and the GI50 (HS 578T breast) was 8.04 µM. For the same compound, the TGI (HS 578T breast) was 35.6 µM, the GI50 (HT29 colon) was 4.41 µM and the TGI (HT29 colon) was over 52 µM. It also gave a GI50 (CAKI-1 renal) of 14.1 µM, a TGI (CAKI-1 renal) of over 52 µM and a GI50 (NCI-H226 lung) of 3.52 µM. The TGI (NCI-H226 lung) was 29.8 µM, the GI50 (RPMI-8226 leukemia) was 3.23 µM and the TGI (RPMI-8226 leukemia) was 21 µM. For the same compound, the GI50 (SF-539 CNS) was 2.99 µM, the TGI (SF-539 CNS) was 14.8 µM and the GI50 (BT-549 breast) was 10.5 µM. It also gave a TGI (BT-549 breast) of 32.8 µM, a GI50 (HOP-62 NSCLC) of 10.2 µM and a TGI (HOP-62 NSCLC) of over 52 µM. The GI50 (OVCAR-5 ovarian) was 11.4 µM, the TGI (OVCAR-5 ovarian) was over 52 µM and the GI50 (OVCAR-8 ovarian) was 11.7 µM. The TGI (OVCAR-8 ovarian) was 48.9 µM, the GI50 (MCF7 breast) was 1.54 µM and the TGI (MCF7 breast) was 10.2 µM. The GI50 (CCRF-CEM leukemia) was 4.77 µM, the TGI (CCRF-CEM leukemia) was 41.6 µM and the GI50 (MOLT-4 leukemia) was 1.87 µM. It also gave a TGI (MOLT-4 leukemia) of over 52 µM, a GI50 (NCI/ADR-RES ovarian) of 13.7 µM and a TGI (NCI/ADR-RES ovarian) of over 52 µM. For the same compound, the GI50 (HCT-15 colon) was 5.08 µM, the TGI (HCT-15 colon) was 25 µM and the GI50 (MDA-MB-231 breast) was 13.2 µM. The TGI (MDA-MB-231 breast) was over 52 µM, the GI50 (M14 melanoma) was 6.74 µM and the TGI (M14 melanoma) was 15.8 µM. It also gave a GI50 (SK-OV-3 ovarian) of 7.82 µM, a TGI (SK-OV-3 ovarian) of 51.5 µM and a GI50 (IGROV1 ovarian) of 6.52 µM. It also gave a TGI (IGROV1 ovarian) of over 52 µM, a GI50 (UACC-62 melanoma) of 9.25 µM and a TGI (UACC-62 melanoma) of over 52 µM. It also gave a GI50 (SK-MEL-5 melanoma) of 3.7 µM, a TGI (SK-MEL-5 melanoma) of 12.4 µM and a GI50 (UO-31 renal) of 5.28 µM. For the same compound, the TGI (UO-31 renal) was 39.3 µM, the GI50 (A498 renal) was 6.02 µM and the TGI (A498 renal) was 32.1 µM. The GI50 (OVCAR-3 ovarian) was 4.11 µM, the TGI (OVCAR-3 ovarian) was 42.2 µM and the GI50 (EKVX NSCLC) was 10.5 µM. For the same compound, the TGI (EKVX NSCLC) was over 52 µM, the GI50 (SN12C renal) was 14.5 µM and the TGI (SN12C renal) was over 52 µM. The GI50 (KM12 colon) was 10.4 µM, the TGI (KM12 colon) was over 52 µM and the GI50 (HOP-92 NSCLC) was 6.12 µM. It also gave a TGI (HOP-92 NSCLC) of 33.4 µM, a GI50 (NCI-H522 lung) of 3.89 µM and a TGI (NCI-H522 lung) of 17.7 µM. It also gave a GI50 (U251 CNS) of 6.76 µM, a TGI (U251 CNS) of 36.4 µM and a GI50 (HL-60(TB) leukemia) of 2.01 µM. For the same compound, the TGI (HL-60(TB) leukemia) was over 52 µM, the GI50 (RXF 393 renal) was 1.63 µM and the TGI (RXF 393 renal) was 5.85 µM. It also gave a GI50 (SNB-75 CNS) of 6.59 µM and a TGI (SNB-75 CNS) of 30.3 µM.
